Here are results for 13 compounds from ChEMBL document CHEMBL1201862, “PubChem BioAssay data set” (2004).

The source made the active and inactive calls.

The AC50 is the concentration giving half of the maximal activity seen.

T1 sequence (P11940 whole entry): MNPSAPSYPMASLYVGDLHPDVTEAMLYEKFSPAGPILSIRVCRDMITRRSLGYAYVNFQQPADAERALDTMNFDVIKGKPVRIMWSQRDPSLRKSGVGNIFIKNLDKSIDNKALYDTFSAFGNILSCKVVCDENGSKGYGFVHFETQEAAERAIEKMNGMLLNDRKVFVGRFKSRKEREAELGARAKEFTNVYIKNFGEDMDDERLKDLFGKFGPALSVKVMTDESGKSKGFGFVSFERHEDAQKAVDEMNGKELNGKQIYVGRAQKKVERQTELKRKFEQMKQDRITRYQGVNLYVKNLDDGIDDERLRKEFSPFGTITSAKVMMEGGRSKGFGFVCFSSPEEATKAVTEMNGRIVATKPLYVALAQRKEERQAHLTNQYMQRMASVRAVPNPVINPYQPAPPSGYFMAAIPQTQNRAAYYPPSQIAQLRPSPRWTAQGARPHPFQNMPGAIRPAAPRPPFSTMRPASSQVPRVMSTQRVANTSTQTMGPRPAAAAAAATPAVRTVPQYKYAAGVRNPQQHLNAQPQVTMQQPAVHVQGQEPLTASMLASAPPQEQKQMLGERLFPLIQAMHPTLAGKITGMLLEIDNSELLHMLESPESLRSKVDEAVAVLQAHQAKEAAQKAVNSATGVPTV
T2 sequence (P49327 whole entry): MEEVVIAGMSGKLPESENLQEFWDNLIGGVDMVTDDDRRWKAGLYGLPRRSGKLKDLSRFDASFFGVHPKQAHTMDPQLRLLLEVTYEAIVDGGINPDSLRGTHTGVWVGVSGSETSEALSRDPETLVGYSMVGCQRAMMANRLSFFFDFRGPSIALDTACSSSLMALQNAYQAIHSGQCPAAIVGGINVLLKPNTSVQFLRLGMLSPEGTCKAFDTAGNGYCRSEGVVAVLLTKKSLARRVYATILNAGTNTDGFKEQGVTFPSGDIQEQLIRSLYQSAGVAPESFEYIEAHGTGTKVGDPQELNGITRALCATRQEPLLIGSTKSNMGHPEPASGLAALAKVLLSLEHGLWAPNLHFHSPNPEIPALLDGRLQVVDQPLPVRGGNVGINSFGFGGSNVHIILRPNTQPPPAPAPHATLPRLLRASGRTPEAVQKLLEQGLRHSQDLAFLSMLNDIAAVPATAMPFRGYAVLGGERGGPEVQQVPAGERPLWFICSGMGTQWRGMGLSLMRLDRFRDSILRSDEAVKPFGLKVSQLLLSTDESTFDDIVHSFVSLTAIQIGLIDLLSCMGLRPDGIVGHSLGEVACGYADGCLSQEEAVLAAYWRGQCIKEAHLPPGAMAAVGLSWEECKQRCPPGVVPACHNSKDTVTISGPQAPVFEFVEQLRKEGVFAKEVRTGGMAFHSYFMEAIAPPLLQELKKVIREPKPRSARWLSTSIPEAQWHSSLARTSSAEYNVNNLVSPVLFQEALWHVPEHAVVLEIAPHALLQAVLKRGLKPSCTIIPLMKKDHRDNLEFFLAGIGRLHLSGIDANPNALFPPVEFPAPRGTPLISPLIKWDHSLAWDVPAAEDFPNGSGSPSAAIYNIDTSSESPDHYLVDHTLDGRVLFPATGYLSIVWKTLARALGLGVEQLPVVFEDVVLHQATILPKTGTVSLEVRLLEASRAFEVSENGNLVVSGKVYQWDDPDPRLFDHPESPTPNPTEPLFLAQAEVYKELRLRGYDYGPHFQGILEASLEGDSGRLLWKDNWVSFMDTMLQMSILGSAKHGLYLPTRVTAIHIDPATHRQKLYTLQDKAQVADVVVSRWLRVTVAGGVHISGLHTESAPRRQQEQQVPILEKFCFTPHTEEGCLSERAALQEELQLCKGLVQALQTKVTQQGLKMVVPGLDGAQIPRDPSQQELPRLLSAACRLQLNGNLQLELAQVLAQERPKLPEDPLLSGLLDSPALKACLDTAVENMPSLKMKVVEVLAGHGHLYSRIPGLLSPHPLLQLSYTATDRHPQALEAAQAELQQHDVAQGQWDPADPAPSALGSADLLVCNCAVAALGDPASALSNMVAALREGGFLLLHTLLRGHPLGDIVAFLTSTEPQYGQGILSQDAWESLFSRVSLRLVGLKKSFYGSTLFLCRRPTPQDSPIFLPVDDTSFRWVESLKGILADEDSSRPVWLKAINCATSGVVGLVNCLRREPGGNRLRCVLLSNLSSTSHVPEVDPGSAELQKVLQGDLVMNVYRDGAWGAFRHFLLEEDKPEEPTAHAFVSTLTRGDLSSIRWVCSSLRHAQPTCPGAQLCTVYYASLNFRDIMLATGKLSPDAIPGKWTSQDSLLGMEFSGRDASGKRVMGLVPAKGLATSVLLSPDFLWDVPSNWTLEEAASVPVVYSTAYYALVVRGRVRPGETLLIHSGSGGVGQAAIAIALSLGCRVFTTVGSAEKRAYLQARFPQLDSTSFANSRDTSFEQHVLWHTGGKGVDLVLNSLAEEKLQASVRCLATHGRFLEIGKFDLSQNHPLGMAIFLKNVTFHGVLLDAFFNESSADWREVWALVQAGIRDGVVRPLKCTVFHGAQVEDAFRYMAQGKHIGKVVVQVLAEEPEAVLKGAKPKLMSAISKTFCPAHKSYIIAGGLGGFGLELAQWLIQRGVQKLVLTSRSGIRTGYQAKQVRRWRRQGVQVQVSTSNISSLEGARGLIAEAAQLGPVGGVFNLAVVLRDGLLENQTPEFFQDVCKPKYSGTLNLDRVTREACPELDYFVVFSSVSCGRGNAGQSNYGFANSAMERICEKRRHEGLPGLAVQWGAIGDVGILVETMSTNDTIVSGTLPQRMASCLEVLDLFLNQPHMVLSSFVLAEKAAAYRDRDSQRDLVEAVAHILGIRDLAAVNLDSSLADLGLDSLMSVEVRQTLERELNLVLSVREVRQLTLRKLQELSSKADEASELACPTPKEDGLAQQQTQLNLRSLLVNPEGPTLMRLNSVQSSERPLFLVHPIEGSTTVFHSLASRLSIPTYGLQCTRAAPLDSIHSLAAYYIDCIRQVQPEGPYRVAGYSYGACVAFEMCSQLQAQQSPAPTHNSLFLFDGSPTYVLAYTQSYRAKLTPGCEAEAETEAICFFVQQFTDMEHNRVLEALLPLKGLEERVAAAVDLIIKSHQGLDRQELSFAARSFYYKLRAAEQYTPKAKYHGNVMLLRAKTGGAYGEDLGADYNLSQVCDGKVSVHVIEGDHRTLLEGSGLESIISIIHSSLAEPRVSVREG

One assay has as its target T1, Polyadenylate-binding protein 1 (Homo sapiens, UniProt P11940). Briefly: MLLE binding blockers, Cy5 peptide tracer – biochemical, fluorescence polarization, Cy5-PAM2 peptide, secondary, miRNA deadenylation inhibitor project, dose response (AID 602260). It is filed as functional. To be noted: read-out: IC50_Mean.
In the case of `c1ccc(P(c2ccccc2)c2ccccn2)cc1`, the IC50 is > 66 µM (inactive).

Turning to `NS(=O)(=O)c1ccc(NC(=S)NC(=O)c2ccc(-c3ccccc3)cc2)cc1`, the IC50 is > 66 µM (inactive).

Tested on in the next assay: not listed separately
Briefly: reduction of Shn3 3'UTR-driven luciferase in osteoblasts – cell-based, Clone20 osteoblasts, firefly luciferase, cherry-picked, dose response (AID 624132).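 Note: firefly luciferase luminescence from reporter carrying the Shn3 3'UTR in osteoblasts.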 It is filed as functional.
Settings: not given
Consider `COc1cc(C)c(NC(=O)COc2cccc3c2OC(C)(C)C3)cc1OC`, for which the AC50 is 7.06 µM (active).

Consider `COc1cccc(OCCn2cc(C(C)=O)c3ccccc32)c1`, for which the AC50 is 1.85 µM (active).

In the case of `COC(=O)C1=C(C(=O)OC)[C@@H]2N(Cc3ccccc3)c3ccccc3[C@@]23C[C@@H](C(=O)OC)N(C(=O)c2ccc(Br)cc2)C3=N1`, the AC50 was 8.52 µM (active).

Regarding `Cc1ccc(CC(=O)Nc2ccncc2)cc1`, the AC50 is 2.39 µM (active).

For a further assay, the target named is T1, Polyadenylate-binding protein 1. Briefly: MLLE domain peptide-binding blockers, IC50 – biochemical, fluorescence polarization, FITC-PAM2 peptide, dose response (AID 602259). The class given is functional. To be noted: read-out: IC50_Mean. On the technique in general: Fluorescence polarisation rises when a labelled molecule tumbles more slowly, as on binding a larger partner.
Regarding `c1ccc(P(c2ccccc2)c2ccccn2)cc1`, the IC50 was > 66 µM (inactive).

As for `NS(=O)(=O)c1ccc(NC(=S)NC(=O)c2ccc(-c3ccccc3)cc2)cc1`, the IC50 was > 66 µM (inactive).

Tested on in the next assay: not listed separately
Description: loss of viability in HepG2 cells – cell-based, CellTiter-Glo, cherry-picked, cytotoxicity control for Shn3 inhibitor project, dose response (AID 624134). The class given is functional.
Settings: not given
`COc1cc(C)c(NC(=O)COc2cccc3c2OC(C)(C)C3)cc1OC`: the AC50 is 65.7 µM (active).

For the compound `COc1cccc(OCCn2cc(C(C)=O)c3ccccc32)c1`, the AC50 was 7.55 µM (active).

As for `CCN(CC)S(=O)(=O)c1ccc(N(C)Cc2cccc(OC)c2OC)nc1`, the AC50 is 57.1 µM (active).

Regarding `COC(=O)C1=C(C(=O)OC)[C@@H]2N(Cc3ccccc3)c3ccccc3[C@@]23C[C@@H](C(=O)OC)N(C(=O)c2ccc(Br)cc2)C3=N1`, the AC50 is 34.8 µM (active).

For the compound `Cc1ccc(CC(=O)Nc2ccncc2)cc1`, the AC50 was 3.99 µM (active).

Tested on in the next assay: not listed separately
Briefly: non-specific 3'UTR reporter inhibition in Clone20-Shn3RL – cell-based, Renilla luciferase, cherry-picked, counter-screen for Shn3 inhibitor project, dose response (AID 624133). The class given is functional.
Settings: not given
On to `COc1cc(C)c(NC(=O)COc2cccc3c2OC(C)(C)C3)cc1OC`, for which the AC50 was 11.3 µM (active).

Turning to `COc1cccc(OCCn2cc(C(C)=O)c3ccccc32)c1`, the AC50 is 7.82 µM (active).

For `COC(=O)C1=C(C(=O)OC)[C@@H]2N(Cc3ccccc3)c3ccccc3[C@@]23C[C@@H](C(=O)OC)N(C(=O)c2ccc(Br)cc2)C3=N1`, the AC50 was 23.7 µM (active).

For `Cc1ccc(CC(=O)Nc2ccncc2)cc1`, the AC50 is 15.2 µM (active).

The next assay addresses T2, Fatty acid synthase (Homo sapiens, UniProt P49327). Briefly: inhibition of human FAS-TE enzyme activity – biochemical, endpoint fluorescence intensity, uHTS hits, dose response (AID 624327).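 Note: fluorescence from hydrolysis of an O-methyl fluorescein acyl ester substrate by the enzyme.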 It is filed as functional.
Settings: not given
On to `C=C(C)CSc1ncc(-c2cccc(C(F)(F)F)c2)cn1`, for which the IC50 was 13.3 µM (active).

Consider `CC(C)(C)NC(=O)/C(=C\C=C\c1ccccc1)NC(=O)c1ccc([N+](=O)[O-])cc1`, for which the IC50 is 0.491 µM (active).

As for `O=[N+]([O-])c1cccc(-c2ccc(SCc3cccnc3)nn2)c1`, the IC50 was 8.53 µM (active).

With `O=C(NNS(=O)(=O)c1ccc([N+](=O)[O-])cc1)c1ccc2ccccc2c1O`, the IC50 was 7.74 µM (active).

In the case of `O=C(COc1ncnc2ccccc12)Nc1ccc(Cl)c([N+](=O)[O-])c1`, the IC50 is 8.42 µM (active).

On to `NC(=NOC(=O)CCC1CCCC1)c1cccc([N+](=O)[O-])c1`, for which the IC50 was 7.47 µM (active).

The next assay concerns the target T2, Fatty acid synthase. Description: inhibition of human FAS-TE enzyme activity – biochemical, kinetic fluorescence intensity, dose response (AID 624326).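 Note: rate of fluorescence rise from hydrolysis of a fluorogenic O-methyl fluorescein ester substrate.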 It is filed as functional.
Settings: not given
`C=C(C)CSc1ncc(-c2cccc(C(F)(F)F)c2)cn1`: the IC50 is 6.31 µM (active).

For `CC(C)(C)NC(=O)/C(=C\C=C\c1ccccc1)NC(=O)c1ccc([N+](=O)[O-])cc1`, the IC50 was 0.462 µM (active).

`O=[N+]([O-])c1cccc(-c2ccc(SCc3cccnc3)nn2)c1`: the IC50 is 8.99 µM (active).

As to `O=C(NNS(=O)(=O)c1ccc([N+](=O)[O-])cc1)c1ccc2ccccc2c1O`, the IC50 is 6.99 µM (active).

Regarding `O=C(COc1ncnc2ccccc12)Nc1ccc(Cl)c([N+](=O)[O-])c1`, the IC50 was 6.52 µM (active).

As to `NC(=NOC(=O)CCC1CCCC1)c1cccc([N+](=O)[O-])c1`, the IC50 is 4.54 µM (active).
